Laboratory results published in PMC8556396, “Statin-mediated disruption of Rho GTPase prenylation and activity inhibits respiratory syncytial virus infection” (Communications Biology, 2021).
Several values for one entry are separate records, joined by “and”; a condition that tells them apart may be missing. Equal values may be shown once. Where a name gives a salt, the structure may show the parent alone.

Columns and labels:
RSV-GFP [1] = test: RSV-GFP infection of HEp-2 cells, automated imaging, dose-response; format: cell-based, Respiratory syncytial virus; conditions: for EC50: HEp-2, RSV-GFP MOI 0.5, treated 2 h post-viral exposure
Summary of the method: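 HEp-2 cells infected with RSV-GFP (MOI 0.5) for 90 min; drugs added 2 h post-exposure (screen: within 1 h, 10 µM, 0.1% DMSO). At 48 h p.i., Hoechst-stained nuclei imaged; infection rate = nuclei within GFP area over total nuclei. Viability from mean nuclear intensity and size.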

RSV-GFP [2] = test: microbe, parasite or virus in culture; format: cell-based, Respiratory syncytial virus
Summary of the method: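 Cells infected with RSV-GFP (MOI 0.5) for 90 min in serum-free medium; library compounds added within 1 h of infection at 10 µM final (0.1% DMSO). At 48 h p.i., infection rate was imaged as fraction of nuclei within GFP area, with mean nuclear intensity and size serving as the viability measure.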

HEp-2 cells = test: In vitro cytotoxicity assay (MTT); format: cell-based
RSV A2 [3] = test: Quantification of infectious virus production (plaque assay); format: cell-based, Respiratory syncytial virus; conditions: Fig 3B; atorvastatin 3.5 uM, simvastatin 1.5 uM; supernatants of RSV A2-infected HEp-2; replicate values
Protocol: HEp-2 cells were seeded to six-well plates at a density of 1 × 10^6 cells per well and incubated overnight at 37 °C/5% CO2. The following morning, cells were infected with RSV A2 (MOI 1.0) and treated with drugs 2 h post-viral exposure. The supernatant, containing progeny virions, was collected 48 h p.i., snap frozen, and stored at −80 °C. Quantification of infectious virus particles was performed by a traditional plaque assay. HEp-2 cells were seeded to six-well plates at a density of 1.5 × 10^6 cells per well and grown to 90% confluency. Cells were incubated with serial dilutions of the collected supernatants for 90 min at 37 °C/5% CO2 under frequent agitation. The inoculant was then removed and replaced with 4 mL of 1:1 4% FBS DMEM-F12/1% agarose. Plates were incubated for 5 days at 37 °C/5% CO2. Cells were then fixed with 10% formalin for 30 min at room temperature. After fixation and removal of agarose from each well, the cells were stained with 0.05% neutral red and plaques were quantified under a dissecting microscope.

[4] = tested on: prenylated proteins (small GTPases); test: Measurement of protein prenylation by click chemistry; format: cell-based; conditions: for GAPDH Normalized Intensity, Farnesylation / GAPDH Normalized Intensity, Geranylgeranylation / Raw Integrated Intensity, Farnesylation / Raw Integrated Intensity, Geranylgeranylation: + statin (atorvastatin 3.5 µM)
Protocol: HEp-2 cells were cultured in the presence of farnesyl alcohol azide (FAA) (SC-294586, Santa Cruz Biotechnology) or geranylgeranyl alcohol azide (GGAA) (C10249, Thermo Fisher Scientific) at a final concentration of 25 µM diluted in 10 mM aqueous NH4OH. Cells were infected with RSV A2 (MOI 0.5) and treated with drugs 2 h post-viral exposure. Cell lysis was performed on ice in RIPA buffer 48 h p.i., and prenylated proteins were reacted with biotin-PEG4-alkyne using the Click-iT Protein Reaction Buffer Kit (C10276, Thermo Fisher Scientific) as per the manufacturer’s protocol. Prenylated proteins in the processed samples were then visualized by western blot using a streptavidin-HRP conjugate (RPN1231, Cytiva) and Clarity ECL Substrate (1705061, Bio-Rad). Relative protein levels were quantified by densitometry in ImageJ (v1.52b).

RSV A2 [5] = test: Immunofluorescence staining and microscopy of RSV F and N;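 on RSV N intensity (a.u.): fluorescence normalized to total nuclear count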
Protocol: HEp-2 cells were seeded to No. 1 glass coverslips (1014355117NR1, Thermo Fisher Scientific) for high-resolution confocal microscopy, or black, flat, microclear-bottom 96-well plates (655096, Greiner Bio-One) for high-throughput quantification of RSV F and N immunofluorescence. Cells were infected with RSV A2 (MOI 0.5). At 48 h p.i., cells were fixed in 4% paraformaldehyde for 30 min and permeabilized with 0.3% Triton X-100 for 10 min at room temperature. F and N proteins were probed using mouse anti-RSV F (RSV3216) and mouse anti-RSV N (RSV3132) mAbs (Bio-Rad Antibodies) diluted 1:500 in PBS + 0.1% Tween-20 (PBST), or mouse anti-RSV F mAb Alexa Fluor 488 conjugate (Millipore Sigma, 133/1H) diluted 1:200 in PBST over a 1-h incubation at room temperature. This was followed by detection with secondary anti-mouse Fab fragments conjugated to Alexa Fluor 488 (4408) or 647 (4410) (Cell Signaling Technology) diluted 1:1000 in PBST over a 1-h incubation at room temperature. Fluorescent images were acquired using either the Cellomics ArrayScan VTI HCS Reader at ×10 magnification (for quantification) or Olympus IX81 Spinning Disk Confocal microscope at ×60 magnification with oil immersion (for high-resolution images). F and N immunofluorescence was quantified in CellProfiler and normalized to total nuclear count.

## CC(C)c1c(C(=O)Nc2ccccc2)c(-c2ccccc2)c(-c2ccc(F)cc2)n1CC[C@@H](O)C[C@@H](O)CC(=O)O [Atorvastatin, Atorvastatin calcium salt trihydrate]
RSV-GFP [1]
  EC50: 2560 nM
RSV-GFP [1]; human respiratory syncytial virus, HEp-2, 2 h
  EC50: 2600 nM
RSV-GFP [1]; human respiratory syncytial virus, HEp-2, 48 h, read-out: RSV-GFP inhibition (%), log Conc (uM) -1, replicate values
  inhibition at 0.1 µM: 5.55%
RSV-GFP [2]; HEp-2, RSV-GFP
  RSV inhibition in the screen: inhibit RSV at low micromolar concentrations
RSV-GFP [2]; human respiratory syncytial virus, HEp-2, read-out: RSV-GFP inhibition (%)
  inhibition at 10 µM: 56.4%
HEp-2 cells
  cellular viability by MTT assay at EC50: no significant difference from baseline
HEp-2 cells; human
  doses with significant reduction in viability: greater than 10.0 µM
RSV A2 [3]
  Virus titre (log10 PFU/mL): 4.38 log10 PFU/mL and 4.4624 log10 PFU/mL and 4.176 log10 PFU/mL and 4.322 log10 PFU/mL
[4]; + RSV
  GAPDH Normalized Intensity, Farnesylation: 1.959 and 2.027
  GAPDH Normalized Intensity, Geranylgeranylation: 0.9753 and 1.167
  Raw Integrated Intensity, Farnesylation: 2027541 and 2238487
  Raw Integrated Intensity, Geranylgeranylation: 1062035 and 1238827
[4]; - RSV
  GAPDH Normalized Intensity, Farnesylation: 1.992 and 1.8833
  GAPDH Normalized Intensity, Geranylgeranylation: 0.8805 and 0.8849
  Raw Integrated Intensity, Geranylgeranylation: 899910 and 921628
[4]; - RSV, one value per lane
  Raw Integrated Intensity, Farnesylation: 1842503 and 1809411
[4]; atorvastatin 3.5 µM, 48 h p.i.
  effect on virus-induced small GTPase prenylation: largely mitigate these virus-induced increases to small GTPase prenylation
RSV A2 [5]; Fig 5C, statin alone: atorvastatin 3.5 uM, simvastatin 1.5 uM
  RSV N intensity (a.u.): 0.7327 a.u. and 0.5028 a.u. and 0.4468 a.u. and 0.7381 a.u.
RSV A2 [5]; atorvastatin 3.5 µM with CN04 1.0 µM
  effect of atorvastatin co-treatment with CN04: negated the pro-viral effects of Rho GTPase activation
